A short description of data set [1]: Plasma pharmacokinetics in mice after subcutaneous administration. Format: in vivo, male C57BL/6 mice. As to conditions: plasma, male C57BL/6 mice, SC 10 mg/kg. An excerpt: Animals. […] Four mice were housed in each cage. […] All animals were provided laboratory rodent diet. […] Animals were randomly assigned to treatment groups.
In data set [2] the test system is monoamine oxidase A and B (MAO-A and MAO-B). In words: Stability in the presence of monoamine oxidases (human liver mitochondria preparation). Also noted: half-life / microsomal CLint: dose or concentration left out as unconfirmed. Particulars: for stability in the presence of MAO (in words): human liver mitochondria preparation; for Remaining (t = 60 min) / half-life / microsomal CLint: human liver mitochondria; for half-life / microsomal CLint: human, pH 7.4. How it is done: Liver Mitochondria Incubations. Human liver mitochondria (Xenotech H0610.M) were used.

Data set [3] concerns the target 5-HT2A (Homo sapiens, UniProt P28223). In words: 5-HT2A receptor radioligand binding ([3H]ketanserin). How it is done:
The binding affinities of disclosed compounds at the ketanserin binding site of the 5-HT2A receptor were determined in radioligand binding experiments.
Method. Affinity of the test compounds for the 5-HT2A receptor was determined in radioligand binding experiments with [^3H]ketanserin by WuXi AppTec (Hong Kong) Limited, using methods adapted from the literature and under conditions described in Table 4.

The target in data set [4] is T1, 5-HT2C receptor (Homo sapiens, UniProt P28335).
T1 sequence (P28335 33-458): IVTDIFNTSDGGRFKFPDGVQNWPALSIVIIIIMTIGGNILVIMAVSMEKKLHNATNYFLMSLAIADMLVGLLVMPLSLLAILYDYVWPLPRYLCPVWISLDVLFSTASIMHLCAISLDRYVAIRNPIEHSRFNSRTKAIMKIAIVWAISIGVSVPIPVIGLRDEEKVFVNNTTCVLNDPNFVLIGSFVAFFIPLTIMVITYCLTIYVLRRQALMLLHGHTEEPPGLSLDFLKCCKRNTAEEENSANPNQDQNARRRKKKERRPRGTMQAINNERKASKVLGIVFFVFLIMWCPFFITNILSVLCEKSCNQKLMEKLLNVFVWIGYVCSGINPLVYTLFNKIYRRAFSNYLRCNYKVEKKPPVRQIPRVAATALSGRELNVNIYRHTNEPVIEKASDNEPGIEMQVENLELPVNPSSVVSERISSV
Kind of data set: cell-based. It counts as cell-based. As to conditions: Ca2+ flux.

[5] abbreviates: human liver mitochondria 0.30 mg protein/mL, 37° C.

Sequence of 5-HT2A (P28223 whole entry): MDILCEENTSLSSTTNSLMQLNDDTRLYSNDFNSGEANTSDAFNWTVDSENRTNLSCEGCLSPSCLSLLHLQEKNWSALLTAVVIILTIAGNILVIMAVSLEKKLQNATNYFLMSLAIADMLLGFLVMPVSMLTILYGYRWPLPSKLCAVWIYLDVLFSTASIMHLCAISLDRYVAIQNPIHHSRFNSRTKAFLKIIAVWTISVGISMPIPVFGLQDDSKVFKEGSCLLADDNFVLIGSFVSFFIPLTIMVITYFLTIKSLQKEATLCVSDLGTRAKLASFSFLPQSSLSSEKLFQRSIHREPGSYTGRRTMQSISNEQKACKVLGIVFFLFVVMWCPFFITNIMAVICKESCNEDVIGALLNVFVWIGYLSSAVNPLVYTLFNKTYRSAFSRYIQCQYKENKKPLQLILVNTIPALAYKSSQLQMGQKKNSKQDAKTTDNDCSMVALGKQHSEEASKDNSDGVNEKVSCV

As to `CN(C)CCc1c[nH]c2ccc(F)cc12` [Compound 5-F-DMT, reference compound], in data set [1] (mouse), the AUC(0-t) worked out at 247 ng·h/mL and the Cmax came out at 363 ng/mL. Moreover, in data set [1], the Tmax worked out at 15 min and the t1/2 worked out at 16.2 min. In addition, in data set [2] (setting [5]), the “CLint(MAO)” value was 266 µL/min/mg and the t1/2 was 8.7 min. Moreover, in data set [2], the “stability in the presence of MAO (in words)” value (from here on “stability in the presence”) was “rapidly metabolized by MAO” and the “Remaining (t = 60 min)” value was found to be 0.9%. Besides, the Ki in data set [3] is 181 nM. In data set [4], it took 4.94 nM to reach a half-maximal effect (EC50) and the “5-HT2C % Act @ Max Dose” value is given as 93.9%.
For the compound `CCNCCc1c[nH]c2ccc(F)c(O)c12` [Compound 28, 3-(2-(ethylamino)ethyl)-5-fluoro-1H-indol-4-ol], in data set [2], the “stability in the presence” value was “intermediate stability”, the “Remaining (t = 60 min)” value is on record as 46.4%, the half-life was determined as 56.5 min and the microsomal CLint was determined as 40.9 µL/min/mg. In data set [3], this compound had a Ki of 319 nM. Moreover, in data set [4], the EC50 amounted to 69.7 nM and the “5-HT2C % Act @ Max Dose” value came to 99.03%.
For the compound `CC(C)NCCc1c[nH]c2ccc(F)c(O)c12` [Compound 35, 5-fluoro-3-(2-(isopropylamino)ethyl)-1H-indol-4-ol], in data set [2], the “stability in the presence” value is on record as “intermediate stability”, the “Remaining (t = 60 min)” value is 22.8%, the half-life is 29 min and the microsomal CLint is 79.6 µL/min/mg. Moreover, the Ki in data set [3] was 446 nM. In data set [4], it took 324 nM to reach a half-maximal effect (EC50) and the “5-HT2C % Act @ Max Dose” value is on record as 74.81%.

For the origin of these results see US20260234107A1, “TRYPTAMINES AND METHODS OF TREATING MOOD DISORDERS” (priority 2022, published 2026).
